The results in this text go back to article PMC9876986, “Direct cell extraction of membrane proteins for structure–function analysis” (Scientific Reports, 2023).

The term Kd denotes the free concentration of one partner at which half of the binding sites on the other are occupied at equilibrium, for simple one-to-one binding. Higher therefore signals weaker binding.

This test concerns the target T1, mouse PANX1 (pannexin1) (Mus musculus, UniProt Q9JIP4).
T1 construct: wildtype mouse PANX1, untagged, in His-tagged Salipro nanoparticles
The experiment in a line: SPR on immobilized His-Salipro-mPANX1, empty particles as reference. It counts as binding.

T1 sequence (Q9JIP4 whole entry): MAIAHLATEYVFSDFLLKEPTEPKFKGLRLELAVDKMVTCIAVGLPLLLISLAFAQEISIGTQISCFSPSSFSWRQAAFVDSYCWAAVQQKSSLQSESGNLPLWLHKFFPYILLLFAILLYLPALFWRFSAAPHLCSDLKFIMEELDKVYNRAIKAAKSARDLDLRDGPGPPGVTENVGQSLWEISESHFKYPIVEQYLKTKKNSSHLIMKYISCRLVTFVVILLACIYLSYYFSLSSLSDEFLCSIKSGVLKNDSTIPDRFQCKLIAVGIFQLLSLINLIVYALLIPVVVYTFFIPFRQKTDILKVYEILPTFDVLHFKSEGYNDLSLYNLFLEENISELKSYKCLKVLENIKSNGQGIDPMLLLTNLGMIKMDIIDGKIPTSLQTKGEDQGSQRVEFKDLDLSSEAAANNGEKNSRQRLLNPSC

The compound `CC(=O)S[C@@H]1CC2=CC(=O)CC[C@]2(C)[C@H]2CC[C@@]3(C)[C@@H](CC[C@@]34CCC(=O)O4)[C@H]12` [spironolactone] came in with a Kd of 160 µM.
